Test results as given in ChEMBL document CHEMBL1152560, “Substituted 2-arylbenzothiazoles as kinase inhibitors: hit-to-lead optimization” (Bioorg Med Chem, 2009).

Assays:
[1] = target: T1, Serine/threonine-protein kinase TBK1 (Homo sapiens) (UniProt Q9UHD2); experiment: Residual activity of TBK1 at 1 uM by microplate scintillation counting
T1 sequence (whole entry): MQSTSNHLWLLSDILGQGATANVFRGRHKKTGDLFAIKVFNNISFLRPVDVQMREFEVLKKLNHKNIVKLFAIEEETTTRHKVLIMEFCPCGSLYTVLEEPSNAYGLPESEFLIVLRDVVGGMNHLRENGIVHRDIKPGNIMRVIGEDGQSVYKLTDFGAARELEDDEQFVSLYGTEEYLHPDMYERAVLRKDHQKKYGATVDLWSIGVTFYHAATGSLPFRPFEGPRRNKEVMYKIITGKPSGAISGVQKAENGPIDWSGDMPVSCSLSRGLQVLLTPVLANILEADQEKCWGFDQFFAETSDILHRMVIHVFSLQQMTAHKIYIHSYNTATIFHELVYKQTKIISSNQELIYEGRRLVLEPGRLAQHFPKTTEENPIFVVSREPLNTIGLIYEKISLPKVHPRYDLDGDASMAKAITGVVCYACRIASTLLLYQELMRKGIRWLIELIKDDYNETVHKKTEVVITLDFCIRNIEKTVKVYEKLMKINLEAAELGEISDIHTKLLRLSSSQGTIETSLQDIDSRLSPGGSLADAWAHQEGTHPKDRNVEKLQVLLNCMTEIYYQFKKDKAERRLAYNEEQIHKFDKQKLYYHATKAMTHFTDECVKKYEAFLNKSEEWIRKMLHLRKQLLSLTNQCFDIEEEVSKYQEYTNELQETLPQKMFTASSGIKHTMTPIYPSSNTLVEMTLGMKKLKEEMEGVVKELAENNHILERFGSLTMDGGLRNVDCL

[2] = target: T2, NUAK family SNF1-like kinase 2 (Homo sapiens) (UniProt Q9H093); experiment: Residual activity of SNARK at 1 uM by microplate scintillation counting
T2 sequence (whole entry): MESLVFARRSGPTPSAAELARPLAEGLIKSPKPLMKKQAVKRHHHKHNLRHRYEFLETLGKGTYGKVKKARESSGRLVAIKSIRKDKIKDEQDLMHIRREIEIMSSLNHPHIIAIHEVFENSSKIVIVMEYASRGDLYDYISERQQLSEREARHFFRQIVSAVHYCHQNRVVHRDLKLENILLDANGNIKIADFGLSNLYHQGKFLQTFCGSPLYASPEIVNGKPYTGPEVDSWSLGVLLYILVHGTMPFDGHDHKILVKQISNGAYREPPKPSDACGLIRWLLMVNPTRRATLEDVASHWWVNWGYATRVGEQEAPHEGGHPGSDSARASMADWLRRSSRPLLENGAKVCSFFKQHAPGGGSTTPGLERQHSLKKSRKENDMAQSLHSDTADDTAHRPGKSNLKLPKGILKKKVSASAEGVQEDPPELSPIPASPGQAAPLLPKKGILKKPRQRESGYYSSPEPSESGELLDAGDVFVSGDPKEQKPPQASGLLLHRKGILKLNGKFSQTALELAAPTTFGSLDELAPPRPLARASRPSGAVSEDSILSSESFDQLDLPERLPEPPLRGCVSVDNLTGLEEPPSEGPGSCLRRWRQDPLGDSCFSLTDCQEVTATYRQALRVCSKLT

[3] = target: Calcium/calmodulin-dependent protein kinase type II subunit delta (Homo sapiens) (UniProt Q13557); experiment: Residual activity of CAMK2D at 1 uM by microplate scintillation counting
Chain of Calcium/calmodulin-dependent protein kinase type II subunit delta (Homo sapiens) (Q13557 whole entry): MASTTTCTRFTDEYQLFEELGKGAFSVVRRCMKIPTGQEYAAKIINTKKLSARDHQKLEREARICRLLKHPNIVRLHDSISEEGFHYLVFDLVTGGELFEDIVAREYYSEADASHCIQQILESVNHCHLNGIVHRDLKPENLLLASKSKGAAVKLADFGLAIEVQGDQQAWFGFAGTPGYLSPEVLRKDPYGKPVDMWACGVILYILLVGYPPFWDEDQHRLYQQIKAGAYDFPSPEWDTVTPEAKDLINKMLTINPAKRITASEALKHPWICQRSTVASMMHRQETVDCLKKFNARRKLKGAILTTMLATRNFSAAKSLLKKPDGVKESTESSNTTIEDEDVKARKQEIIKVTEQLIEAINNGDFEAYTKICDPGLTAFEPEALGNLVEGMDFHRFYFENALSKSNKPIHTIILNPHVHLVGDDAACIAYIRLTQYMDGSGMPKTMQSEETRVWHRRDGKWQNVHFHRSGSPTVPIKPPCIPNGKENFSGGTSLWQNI

[4] = target: Mitogen-activated protein kinase kinase kinase 14 (Homo sapiens) (UniProt Q99558); experiment: Residual activity of NIK at 0.1 uM by microplate scintillation counting
Chain of Mitogen-activated protein kinase kinase kinase 14 (Homo sapiens) (Q99558 whole entry, looked up): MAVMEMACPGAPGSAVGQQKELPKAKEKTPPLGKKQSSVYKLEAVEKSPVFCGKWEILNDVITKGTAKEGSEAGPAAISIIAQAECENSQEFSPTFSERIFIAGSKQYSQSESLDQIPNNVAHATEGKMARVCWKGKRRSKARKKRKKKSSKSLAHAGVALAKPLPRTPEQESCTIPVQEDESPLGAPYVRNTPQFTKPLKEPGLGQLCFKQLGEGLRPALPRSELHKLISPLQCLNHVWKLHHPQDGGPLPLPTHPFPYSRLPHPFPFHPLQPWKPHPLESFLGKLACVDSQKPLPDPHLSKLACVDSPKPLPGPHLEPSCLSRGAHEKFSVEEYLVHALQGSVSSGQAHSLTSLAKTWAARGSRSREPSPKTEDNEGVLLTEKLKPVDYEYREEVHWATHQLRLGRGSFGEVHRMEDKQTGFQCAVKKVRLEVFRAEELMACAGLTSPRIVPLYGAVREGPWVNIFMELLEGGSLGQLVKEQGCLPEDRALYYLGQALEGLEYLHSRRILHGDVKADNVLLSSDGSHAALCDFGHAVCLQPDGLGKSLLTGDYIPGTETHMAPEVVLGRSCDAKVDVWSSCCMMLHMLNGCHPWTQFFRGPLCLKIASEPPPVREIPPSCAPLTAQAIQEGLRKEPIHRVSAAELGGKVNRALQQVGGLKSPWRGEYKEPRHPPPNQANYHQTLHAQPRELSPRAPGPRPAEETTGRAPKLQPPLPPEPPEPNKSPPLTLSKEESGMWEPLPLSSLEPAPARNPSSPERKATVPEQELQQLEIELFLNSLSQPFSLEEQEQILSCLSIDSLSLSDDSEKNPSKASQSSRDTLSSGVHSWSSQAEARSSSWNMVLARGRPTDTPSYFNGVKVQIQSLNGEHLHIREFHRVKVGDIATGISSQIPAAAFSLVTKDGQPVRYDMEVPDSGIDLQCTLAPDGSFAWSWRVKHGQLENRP

Aurora kinase B = Aurora kinase B (Homo sapiens, UniProt Q96GD4); experiment: Residual activity of Aurora-B at 0.1 uM by microplate scintillation counting
Chain of Aurora kinase B (Q96GD4 whole entry): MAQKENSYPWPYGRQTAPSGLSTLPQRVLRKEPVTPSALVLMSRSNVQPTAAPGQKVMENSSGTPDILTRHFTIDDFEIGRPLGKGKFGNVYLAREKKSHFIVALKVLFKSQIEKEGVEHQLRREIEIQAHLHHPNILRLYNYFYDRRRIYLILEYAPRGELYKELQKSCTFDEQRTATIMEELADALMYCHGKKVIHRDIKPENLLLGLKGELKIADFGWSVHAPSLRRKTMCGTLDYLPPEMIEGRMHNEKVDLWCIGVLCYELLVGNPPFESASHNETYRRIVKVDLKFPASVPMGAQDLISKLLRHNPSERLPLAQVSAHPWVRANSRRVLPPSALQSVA

[5] = target: G protein-coupled receptor kinase 5 (Homo sapiens) (UniProt P34947); experiment: Residual activity of GRK5 at 10 uM by microplate scintillation counting
Chain of G protein-coupled receptor kinase 5 (Homo sapiens) (P34947 whole entry, looked up): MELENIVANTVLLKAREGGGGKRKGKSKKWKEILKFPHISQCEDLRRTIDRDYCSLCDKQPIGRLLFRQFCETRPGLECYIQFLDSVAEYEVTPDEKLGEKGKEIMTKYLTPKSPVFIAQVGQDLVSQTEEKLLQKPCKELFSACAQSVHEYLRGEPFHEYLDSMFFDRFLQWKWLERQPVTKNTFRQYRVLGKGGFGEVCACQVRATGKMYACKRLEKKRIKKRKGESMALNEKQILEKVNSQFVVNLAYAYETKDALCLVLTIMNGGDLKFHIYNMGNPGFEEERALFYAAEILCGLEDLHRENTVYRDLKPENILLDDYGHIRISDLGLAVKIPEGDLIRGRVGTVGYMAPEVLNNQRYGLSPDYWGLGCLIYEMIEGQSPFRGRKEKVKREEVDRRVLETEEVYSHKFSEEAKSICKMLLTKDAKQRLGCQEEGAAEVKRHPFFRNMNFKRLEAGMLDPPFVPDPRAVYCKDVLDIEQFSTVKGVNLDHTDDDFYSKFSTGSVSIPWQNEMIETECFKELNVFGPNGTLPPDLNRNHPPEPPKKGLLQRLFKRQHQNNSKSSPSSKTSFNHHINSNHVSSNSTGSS

[6] = target: T3, Serine/threonine-protein kinase 17A (Homo sapiens) (UniProt Q9UEE5); experiment: Residual activity of STK17A at 10 uM by microplate scintillation counting
T3 sequence (whole entry): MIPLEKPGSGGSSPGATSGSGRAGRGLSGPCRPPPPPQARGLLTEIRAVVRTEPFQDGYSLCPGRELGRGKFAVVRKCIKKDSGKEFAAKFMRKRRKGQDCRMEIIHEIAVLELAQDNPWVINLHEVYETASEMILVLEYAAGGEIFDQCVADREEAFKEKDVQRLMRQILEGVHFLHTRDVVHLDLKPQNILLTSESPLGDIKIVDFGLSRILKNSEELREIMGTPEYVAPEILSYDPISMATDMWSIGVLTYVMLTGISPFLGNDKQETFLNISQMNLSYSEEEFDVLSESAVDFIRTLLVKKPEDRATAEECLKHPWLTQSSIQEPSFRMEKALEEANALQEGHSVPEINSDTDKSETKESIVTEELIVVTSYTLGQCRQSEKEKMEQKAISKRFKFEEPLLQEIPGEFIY

residual activity [1] | residual activity [2] | residual activity [3] | residual activity [4] | residual activity (Aurora kinase B) | residual activity [5] | residual activity [6] | SMILES
92% | 88% | 96% | 87% | 48% | 81% | 6% | COc1cc2c(Oc3ccc(-c4nc5ccccc5s4)cc3)ncnc2cc1OCCCN1CCCC1
85% | 87% | 92% | 86% | 40% | 76% | 19% | COc1cc2c(Oc3ccc(-c4nc5ccccc5s4)cc3)ncnc2cc1OCCCN1CCN(C)CC1
99% | 91% | 97% | 86% | 45% | 84% | 1% | COc1cc2c(Oc3ccc(-c4nc5ccccc5s4)cc3F)ncnc2cc1OCCCN1CCN(C)CC1
